How the values were obtained:
[1] = tested on: MDA-MB-231, MCF7, HCT-116, Ramos, OPM-1, PANC-1 and U2OS cell lines; assay: Apoptotic cell death in other types of cancer cell lines; type: cell-based, human; conditions: 1μM, 72h
Protocol: Figure S2. BKA-073 induces mitochondrial priming and apoptosis in various type of cancers. (A) Expression levels of Bak were analyzed by Western blot in various type of cancer cell lines. (B-C) Various type of cancer cell lines were treated with BKA -073 (1µM) for 16h or 72h, followed by analysis of dynamic BH3 profiling (B) or apoptotic cell death (C), respectively.
Data represent the mean ± SD, n = 3 per group. ***P < 0.001, by 2-tailed t test.
(1 picture or pasted object on this page, not shown here)
Supplemental Materials and Methods
Small molecule NSC14073 (BKA-073) was obtained from the Drug Synthesis and Chemistry Branch, Developmental Therapeutic Program, Division of Cancer Treatment and Diagnosis, National Cancer Institute (NCI, Bethesda, MD) (http://dtp.nci.nih.gov/RequestCompounds).
Venetoclax (ABT-199, 205807) was purchased from MedKoo Biosciences (Morrisville, NC). […]
Cells were seeded at a density of 5 × 103 per well in 96-well plates and allowed to grow overnight. After treatment with BKA-073, the surviving cell fraction was determined using the sulforhodamine B (SRB) assay as described. Optical density (OD) was measured at 510nm in a microplate reader (Synergy H1, BioTek®, Winooski, VT). […]
Apoptotic cells were detected using Annexin-V Apoptosis Detection Kit (556547, BD Biosciences, San Jose, CA) according to the manufacturer’s instructions. […]

[2] = tested on: mitochondria isolated from A549 cells; assay: Cyt c release from isolated mitochondria; type: biochemical, human; conditions: 1 μM, 30 min, 30 °C
Protocol: Figure 3 Bak is required for BKA-073 induction of mitochondrial priming, Cyt c release and apoptotic cell death. (A) Levels of Bak and Bax were analyzed by Western blot in parental, Bak ^-/-, Bax ^-/- or Bax/Bak double-knockout (DKO) A549 cells. (B-C) Parental, Bak ^-/-, Bax ^-/- or DKO A549 cells were treated with BKA-073 (1μM) for 16h or 72h, followed by analysis of dynamic BH3 profiling (B) or apoptotic cell death (C), respectively. Data represent the mean ± SD, n = 3 per group. ***P < 0.001, by 2-tailed t test. (D) Parental, Bak ^-/-, Bax ^-/- or DKO A549 cells were treated with BKA-073 (1μM) for 24 h. Mitochondrial and cytosolic fractions were isolated. Levels of Cyt c in these two fractions were analyzed by western blot. (E) Mitochondria were isolated from parental, Bak ^-/-, Bax ^-/- or DKO A549 cells. The isolated mitochondria were then treated with BKA-073 (1μM) in mitochondrial buffer for 30 min at 30 °C. After centrifugation, Cyt c in supernatant fraction (i.e. Cyt c release) and Cyt c in mitochondrial pellet were analyzed by western blot.
To further test whether Bak is required for BKA-073 induction of Cyt c release, A549 parental, Bak^-/-, Bax^-/- and DKO cells were treated with BKA-073 (1 μM) for 24h, followed by analysis of Cyt c release from mitochondria. […] After centrifugation at 13000 g for 5 min, Cyt c in the supernatant (i.e., Cyt c release) was analyzed by Western blot.

SMILES: COc1ccc2nc3ccccc3c(NCCNCC(C)O)c2c1 (stereo not drawn) [BKA-073]
- induction of apoptotic cell death [1]: potently induced
- Cyt c release from isolated mitochondria ([2]; mitochondria from A549 Bax-/- cells): induced Cyt c release
- Cyt c release from isolated mitochondria ([2]; mitochondria from A549 parental cells): induced Cyt c release
